Results: patent US7691842B2, “Tricyclic 6-alkylidene-penems as β-lactamase inhibitors” (Wyeth LLC, priority 2002, dated 2010)

Key:
[1] = test system: Clinical isolates that have been adapted to cause infection in mice; test: In vivo antibacterial protection (7 day survival of infected mice, ED50); set-up: species or system mice strain CD-1
Description: In Vivo Antibacterial Protection
Female mice strain CD-1, approximately 18-22 grams, were received from Charles River Laboratories and quarantined 7 days prior to use. In addition, mice may be rendered neutropenic using cytoxan for particular studies.
Clinical isolates that have been adapted to cause infection in mice, are used in the experiment, including infections with strains of E. coli, K. pneumoniae, M. morganii, E. cloacae, S. marcescens, C. freundii, staphylococci, streptococci, P. aeruginosa and N. gonorrhoeae.
Mice are challenged by injecting 0.5 ml intraperitoneally or 0.05 ml intranasally of a predetermined bacterial inoculum suspended in broth, saline or hog gastric mucin (supplemented with dried bovine hemoglobin for N. gonorrhoeae). […] Antibacterial doses (dose concentration prepared by two fold serial dilutions of the antibiotic) are dissolved or suspended in 0.2% aqueous agar or methocel, phosphate buffered saline or an adjuvant are administered orally, subcutaneously or intravenously in the following manner: • a) Orally or subcutaneously: Dose volume of 0.5 ml administered ½ hr after infection. A second dose may be administered 3 hr. after infection for treatment of infections with more virulent organisms. • b) Intravenously: Dose volume of 0.2 ml, administered ½ hr. after infection. For the treatment of infections with more virulent organisms, more doses, up to 48 hr may be administered. (Intravenous dosing will not exceed 3 doses/24 hr period.) • c) Oral pretreatment: Under special circumstances, the pH of the stomach needs to be adjusted in order to increase the gastric stability of the antibiotic. For this purpose, 0.5 ml of phosphate buffered saline (pH7.8, 0.06M) (or specific approved adjuvant) is administered orally ½ hr after infection, followed 5 minutes later by 0.5 ml of antibiotic (also orally) contained in phosphate buffered saline (pH7.8, 0.06M). Animal Species
A detailed explanation as to the number of animals needed for the determination of in vivo efficacy follows: • A) Novel antibiotics are tested at 5 different dose levels with 5 mice per dose level at each of three routes of administration (oral, subcutaneous and intravenous). […] This would require 25 mice/route with 3 routes/antibiotic or 75 mice per novel compound tested. One to two novel antibiotics will be tested per experiment (75-150 mice) • B) The effectiveness of the new compound must be compared to that of a standard, or antibiotic of known effectiveness. Known or previously tested antibiotics are tested at 5 dose levels with 5 mice per dose level by a single route of administration, for a total of 25 mice/antibiotic. Usually 3-6 antibiotics will be tested per experiment. (75-150 mice). • C) Untreated controls—In each of the above tests, untreated animals are infected with 3 different concentrations of bacterial inoculum with 10 mice per concentration (30 mice total in each and every test). These untreated controls are used to determine and maintain the infection level between 10-100 LD50s as required for test to test comparison and validity. Determination of Protective Effects of Antibacterial Agents:
The protective effects of the antibacterial agent(s) are measured by the survival of the infected untreated as compared to the treated animals. For this determination, animals are observed for 7 days after treatment. A census of survivors is taken twice daily and at that time dead as well as moribund animals are removed. The 7 day survival ratio from three separate tests are pooled for estimation of median effective dose (ED50) by computerized program for probit analysis (Cleeland, R. and E. Squires. 1991. Evaluation of New Antimicrobials in Vitro and in Experimental Animal Infections. In Antibiotics in Laboratory Medicine”, 3rd. ed., edited by Victor Lorian. Willams and Wilkins Baltimore, Md. pp. 752-783). […]

[2] = target: class A β-lactamase TEM-1 (Escherichia coli, UniProt P62593); test: β-Lactamase inhibition, IC50 determination (nitrocefin, spectrophotometric); type: biochemical, E. Coli; conditions: enzyme 4.3 nM; 10 min preincubation at 25° C.; nitrocefin 50 μg/ml; 50 mM PO4, pH 7.0; read-out: IC50 (nM) Class A TEM-1
Chain of class A β-lactamase TEM-1 (P62593 24-286 limits assumed): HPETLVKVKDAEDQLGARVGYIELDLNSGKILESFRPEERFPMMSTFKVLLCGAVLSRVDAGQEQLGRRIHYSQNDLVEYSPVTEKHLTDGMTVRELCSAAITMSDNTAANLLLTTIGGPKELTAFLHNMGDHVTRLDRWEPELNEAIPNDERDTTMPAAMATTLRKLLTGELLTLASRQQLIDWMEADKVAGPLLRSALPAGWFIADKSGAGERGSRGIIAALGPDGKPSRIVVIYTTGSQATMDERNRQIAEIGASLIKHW
Summary of the method: (§1)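 Purified enzymes TEM-1 (4.3 nM), Imi-1 (7.1 nM), CcrA (1.2 nM) and AmpC (2.1 nM) were preincubated with inhibitor 10 min at 25 °C in 50 mM PO4, pH 7.0. Nitrocefin (50 μg/ml) hydrolysis rates at 495 nm over 5 min gave % inhibition versus control; IC50 determined graphically.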

[3] = test system: E. Coli GC2203; test: Antimicrobial susceptibility testing, microbroth dilution MIC of piperacillin + inhibitor; type: cell-based; conditions: piperacillin combined with constant 4 μg/ml inhibitor; Inc: 35° C. for 18 hours
Summary of the method: (§2)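 Piperacillin two-fold dilution series + 4 μg/ml inhibitor (final), MHBII, 10^5 CFU/ml, 35° C, 18-22 h, ambient air; NCCLS microdilution.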

[4] = test system: E. Coli GC2844; test: as above; type: cell-based; conditions: piperacillin combined with constant 4 μg/ml inhibitor; Inc: 35° C. for 18 hours
Summary of the method: as §2

[5] = test system: E. Coli GC2847 (TEM-1); test: as above; type: cell-based; conditions: piperacillin combined with constant 4 μg/ml inhibitor; Inc: 35° C. for 18 hours
Summary of the method: as §2

[6] = test system: E. Coli GC2920 (IRT-2); test: as above; type: cell-based; conditions: piperacillin combined with constant 4 μg/ml inhibitor; Inc: 35° C. for 18 hours
Summary of the method: as §2

[7] = test system: S. aureus GC2216; test: as above; type: cell-based; conditions: piperacillin combined with constant 4 μg/ml inhibitor; Inc: 35° C. for 18 hours
Summary of the method: as §2

[8] = test system: P. aeruginos GC1764 (Ampc); test: as above; type: cell-based; conditions: piperacillin combined with constant 4 μg/ml inhibitor; Inc: 35° C. for 18 hours
Summary of the method: as §2

[9] = test system: S. Marcescens GC1781 Sme-1 + Ampc; test: as above; type: cell-based; conditions: piperacillin combined with constant 4 μg/ml inhibitor; Inc: 35° C. for 18 hours
Summary of the method: as §2

[10] = test system: E. Cloacae GC1477 (Ampc); test: as above; type: cell-based; conditions: piperacillin combined with constant 4 μg/ml inhibitor; Inc: 35° C. for 18 hours
Summary of the method: as §2

[11] = test system: E. Coli GC2894 (Ampc); test: as above; type: cell-based; conditions: piperacillin combined with constant 4 μg/ml inhibitor; Inc: 35° C. for 18 hours
Summary of the method: as §2

[12] = target: class B enzyme CcrA (Bacteroides fragilis, UniProt P25910); test: β-Lactamase inhibition, IC50 determination (nitrocefin, spectrophotometric); type: biochemical; conditions: enzyme 1.2 nM; 10 min preincubation at 25° C.; nitrocefin 50 μg/ml; 50 mM PO4, pH 7.0; read-out: IC50 (nM) Class B Ccr
Chain of class B enzyme CcrA (P25910 19-249): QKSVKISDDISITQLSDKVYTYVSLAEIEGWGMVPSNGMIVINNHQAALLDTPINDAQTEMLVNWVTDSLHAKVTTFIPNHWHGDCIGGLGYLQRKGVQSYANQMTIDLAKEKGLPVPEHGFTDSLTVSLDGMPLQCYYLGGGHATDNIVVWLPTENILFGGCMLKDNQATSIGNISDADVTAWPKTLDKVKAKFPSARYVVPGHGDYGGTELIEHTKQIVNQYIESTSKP
Summary of the method: as §1

[13] = target: class A β-lactamase Imi-1 (Enterobacter cloacae, UniProt Q46991); test: as above; type: biochemical; conditions: enzyme 7.1 nM; 10 min preincubation at 25° C.; nitrocefin 50 μg/ml; 50 mM PO4, pH 7.0; read-out: IC50 (nM) Class A Imi
Chain of class A β-lactamase Imi-1 (Q46991 entry or part of it): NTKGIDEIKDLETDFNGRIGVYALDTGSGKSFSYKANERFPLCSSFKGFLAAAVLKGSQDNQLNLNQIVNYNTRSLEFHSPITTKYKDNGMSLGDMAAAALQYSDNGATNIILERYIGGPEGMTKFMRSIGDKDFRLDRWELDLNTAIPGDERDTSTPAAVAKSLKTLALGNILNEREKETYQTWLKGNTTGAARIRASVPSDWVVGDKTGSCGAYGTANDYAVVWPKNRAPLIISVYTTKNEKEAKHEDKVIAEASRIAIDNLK

[14] = target: class C enzyme AmpC (Enterobacter cloacae, UniProt P05364); test: biochemical; set-up: species or system Enterobacter cloaca; conditions: enzyme 2.1 nM; 10 min preincubation at 25° C.; nitrocefin 50 μg/ml; 50 mM PO4, pH 7.0; read-out: IC50 (nM) Class C AmpC
Chain of class C enzyme AmpC (P05364 21-381): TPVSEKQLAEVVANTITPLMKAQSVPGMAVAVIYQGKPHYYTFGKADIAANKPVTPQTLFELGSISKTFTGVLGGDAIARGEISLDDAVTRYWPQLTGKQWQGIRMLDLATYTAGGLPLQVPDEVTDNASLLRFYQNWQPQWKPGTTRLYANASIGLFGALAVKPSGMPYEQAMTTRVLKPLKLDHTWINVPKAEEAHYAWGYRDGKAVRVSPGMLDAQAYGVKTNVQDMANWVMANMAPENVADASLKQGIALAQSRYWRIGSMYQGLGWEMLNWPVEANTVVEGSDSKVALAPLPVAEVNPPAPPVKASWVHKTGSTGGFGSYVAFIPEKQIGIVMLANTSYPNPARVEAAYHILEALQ
Summary of the method: as §1

[15] = Ratio of Piperacillin Inhibitor not given

Row | Compound | melting point | ED50 [1, 15] [mg/kg] | IC50 [2] [nM] | Minimal Inhibitory Concentration E. Coli GC2203 [3] [µg/mL] | Minimal Inhibitory Concentration E. Coli GC2844 [4] [µg/mL] | Minimal Inhibitory Concentration E. Coli GC2847 (TEM-1) [5] [µg/mL] | Minimal Inhibitory Concentration E. Coli GC2920 (IRT-2) [6] [µg/mL] | Minimal Inhibitory Concentration S. aureus GC2216 [7] | Minimal Inhibitory Concentration P. aeruginos GC1764 (Ampc) [8] [µg/mL] | Minimal Inhibitory Concentration S. Marcescens GC1781 Sme-1 + Ampc [9] [µg/mL] | Minimal Inhibitory Concentration E. Cloacae GC1477 (Ampc) [10] [µg/mL] | Minimal Inhibitory Concentration E. Coli GC2894 (Ampc) [11] [µg/mL] | IC50 [12] [nM] | IC50 [13] [nM] | IC50 [14] [nM] | ED50 ([1]; Ratio of Piperacillin Inhibitor 4:1) [mg/kg]
1 | O=C(O)C1=CS[C@@H]2/C(=C\c3cn4c5c(sc4n3)COCC5)C(=O)N12 [Example 15, (5R),(6Z)-6-(5,8-dihydro-6H-imidazo[2,1-b]pyrano[4,3-d][1,3]thiazol-2-ylmethylene)-7-oxo-4-thia-1-azabicyclo[3.2.0]hept-2-ene-2-carboxylic acid] |  | 25 | 2.8 | 2 | 2 | 4 | 2 | 0.05 µg/mL | 4 | 1 | 16 | 2 | 200 | 100 | 1.5 | 
2 | O=C(O)C1=CS[C@@H]2/C(=C\c3cn4c5c(sc4n3)CCCC5)C(=O)N12 [Example 19, (5R),(6Z)-7-oxo-6-(5,6,7,8-tetrahydroimidazo[2,1-b][1,3]benzothiazol-2-ylmethylene)-4-thia-1-azabicyclo[3.2.0]hept-2-ene-2-carboxylic acid] |  | 63 | 1.9 | 2 | 2 | 8 | 2 | .06 µg/mL | 1 | 8 | 32 | 4 | 215 | 33 | 0.62 | 
3 | O=C(O)C1=CS[C@@H]2/C(=C\c3cn4c(n3)sc3cc(Cl)ccc34)C(=O)N12 [Example 3] |  |  | 5.6 | 1 | 2 | 4 | 1 | <0.06 µg/mL | 8 | 1 | 16 | 2 | 74 | 22 | 3.2 | 32 to 64

The next lines start with results.

Row | melting point | Compound | ED50 [1, 15] [mg/kg] | IC50 [2] [nM] | Minimal Inhibitory Concentration E. Coli GC2203 [3] [µg/mL] | Minimal Inhibitory Concentration E. Coli GC2844 [4] [µg/mL] | Minimal Inhibitory Concentration E. Coli GC2847 (TEM-1) [5] [µg/mL] | Minimal Inhibitory Concentration E. Coli GC2920 (IRT-2) [6] [µg/mL] | Minimal Inhibitory Concentration S. aureus GC2216 [7] | Minimal Inhibitory Concentration P. aeruginos GC1764 (Ampc) [8] [µg/mL] | Minimal Inhibitory Concentration S. Marcescens GC1781 Sme-1 + Ampc [9] [µg/mL] | Minimal Inhibitory Concentration E. Cloacae GC1477 (Ampc) [10] [µg/mL] | Minimal Inhibitory Concentration E. Coli GC2894 (Ampc) [11] [µg/mL] | IC50 [12] [nM] | IC50 [13] [nM] | IC50 [14] [nM] | ED50 ([1]; Ratio of Piperacillin Inhibitor 4:1) [mg/kg]
4 | 250 °C (dec.) | Cc1nc2nc(/C=C3/C(=O)N4C(C(=O)[O-])=CS[C@H]34)nn2c2c1CCCC2.[Na+] [Example 25, (5R,6Z)-6-[(5-methyl-6,7,8,9-tetrahydro[1,2,4]triazolo[1,5-a]quinazolin-2-yl)methylene]-7-oxo-4-thia-1-azabicyclo[3.2.0]hept-2-ene-2-carboxylic acid, sodium salt] |  |  |  |  |  |  |  |  |  |  |  |  |  |  | 
5 | 250 °C (dec.) | Cc1nc2nc(/C=C3/C(=O)N4C(C(=O)[O-])=CS[C@H]34)nn2c2c1CCC2.[Na+] [Example 22, (5R,6Z)-6-[(5-methyl-7,8-dihydro-6H-cyclopenta[e][1,2,4]triazolo[1,5-a]pyrimidin-2-yl)methylene]-7-oxo-4-thia-1-azabicyclo[3.2.0]hept-2-ene-2-carboxylic acid, sodium salt] |  |  |  |  |  |  |  |  |  |  |  |  |  |  | 
6 | > 250 °C (dec.) | O=C([O-])C1=CS[C@@H]2/C(=C\c3nc4ncc5c(n4n3)CCC3(C5)OCCO3)C(=O)N12.[Na+] [Example 24, (5R,6Z)-6-(8′,9′-dihydro-6′H-spiro[1,3-dioxolane-2,7′-[1,2,4]triazolo[1,5-a]quinazolin]-2′-ylmethylene)-7-oxo-4-thia-1-azabicyclo[3.2.0]hept-2-ene-2-carboxylic acid, sodium salt] |  |  |  |  |  |  |  |  |  |  |  |  |  |  | 
